Values joined by “and” are separate entries in the source; they are usually repeats but may differ in a detail not shown here. Identical values can stand only once.
Legend:
[1] = target: Glycogen synthase kinase-3 alpha (Homo sapiens, UniProt P49840); experiment: TR-FRET Assay
In short: (§1)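 Enzyme and test compound were first incubated together for 30 minutes in assay buffer. The kinase reaction followed and was stopped with EDTA. The pSer641 signal was read by time-resolved FRET.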

[2] = target: Glycogen synthase kinase-3 beta (Homo sapiens, UniProt P49841); experiment: TR-FRET Assay
Glycogen synthase kinase-3 beta, sequence (P49841 whole entry): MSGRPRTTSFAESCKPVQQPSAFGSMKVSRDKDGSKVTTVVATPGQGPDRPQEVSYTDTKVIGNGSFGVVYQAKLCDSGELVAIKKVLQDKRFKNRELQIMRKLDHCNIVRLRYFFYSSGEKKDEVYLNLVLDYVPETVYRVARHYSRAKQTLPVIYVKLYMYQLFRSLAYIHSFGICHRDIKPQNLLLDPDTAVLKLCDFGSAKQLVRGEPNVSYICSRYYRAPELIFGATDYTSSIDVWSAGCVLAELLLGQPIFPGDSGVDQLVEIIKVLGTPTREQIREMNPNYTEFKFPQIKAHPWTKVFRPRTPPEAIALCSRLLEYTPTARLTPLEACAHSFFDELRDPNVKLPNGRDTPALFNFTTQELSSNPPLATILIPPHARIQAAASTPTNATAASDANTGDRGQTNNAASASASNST
In short: as §1

Glycogen synthase kinase-3 alpha, sequence (P49840 whole entry): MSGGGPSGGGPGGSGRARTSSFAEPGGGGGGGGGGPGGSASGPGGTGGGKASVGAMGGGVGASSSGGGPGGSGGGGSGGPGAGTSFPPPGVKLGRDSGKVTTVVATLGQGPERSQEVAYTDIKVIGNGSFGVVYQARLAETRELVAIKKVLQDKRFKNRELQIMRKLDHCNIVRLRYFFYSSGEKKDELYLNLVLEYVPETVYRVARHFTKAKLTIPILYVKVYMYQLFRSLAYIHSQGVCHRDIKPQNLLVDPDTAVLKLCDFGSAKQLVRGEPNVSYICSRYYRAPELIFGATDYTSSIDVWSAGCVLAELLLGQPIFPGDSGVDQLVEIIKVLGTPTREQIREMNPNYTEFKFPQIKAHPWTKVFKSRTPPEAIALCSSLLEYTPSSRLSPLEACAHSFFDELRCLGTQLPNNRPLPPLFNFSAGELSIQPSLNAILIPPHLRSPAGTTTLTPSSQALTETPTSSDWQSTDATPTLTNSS

| IC50 [1] | IC50 [2] | SMILES |
| --- | --- | --- |
| < 100 nM | < 100 nM | CCC1(c2cccc(S(=O)(=O)CC)c2)C2=CN=NC2NC2=C1C(=O)CC(C)(C)C2 (stereo unspecified) [US20250313563, Compound 889579] |
| < 100 nM | 100 to 1000 nM | CC1(C)CC(=O)C2=C(C1)NC1=C(CN=N1)C2(C)c1cc(C(F)(F)F)ccc1F (stereo unspecified) [US20250313563, Compound 810376] |
| < 100 nM | 100 to 1000 nM | CC[C@]1(c2cccc(C(F)(F)F)c2)C2=CN=NC2NC2=C1C(=O)N(C(C)C)CC2 (stereo partly specified) [US20250313563, Compound 857336] |
| < 100 nM | 100 to 1000 nM | CC[C@@]1(c2cccc(-c3ccncc3C)c2)C2=C(CC(C)(C)CC2=O)NC2N=NC(C(F)(F)F)=C21 (stereo partly specified) [US20250313563, Compound 947325] |
| 100 to 1000 nM | 1000 to 5000 nM | CC[C@@]1(c2cccc(S(=O)(=O)C3CCCCC3)c2)C2=CN=NC2NC2=C1C(=O)CC(C)(C)C2 (stereo partly specified) [US20250313563, Compound 943541] |
| > 5000 nM | > 5000 nM | CC[C@]1(c2cccc(-c3ccnc4ccccc34)c2)C2=CN=NC2NC2=C1C(=O)CC(C)(C)C2 (stereo partly specified) [US20250313563, Compound 944034] |
| 100 to 1000 nM | 1000 to 5000 nM | CCC1(c2cccc(-c3ccnc(C)c3)c2)C2=CN=NC2NC2=C1C(=O)NC(C)C2 (stereo unspecified) [US20250313563, Compound 913357] |
| > 1670 nM | > 5000 nM | CC[C@]1(c2cccc(C)c2)C2=CN=NC2NC2=C1C(=O)CC1(CCCC1)C2 (stereo partly specified) [US20250313563, Compound 801313] |
| 100 to 1000 nM | 1000 to 5000 nM | CC[C@@]1(c2cccc(C(F)(F)F)c2)C2=CN=NC2NC2=C1C(=O)N(c1cnsc1)CC2 (stereo partly specified) [US20250313563, Compound 951742] |
| > 5000 nM | > 5000 nM | CC[C@]1(c2cccc(-c3ccncc3OC3CC3)c2)C2=CN=NC2NC2=C1C(=O)NC(C)(C)C2 (stereo partly specified) [US20250313563, Compound 948643] |
| < 100 nM | < 100 nM | CC1(C)CC(=O)C2=C(C1)NC1=C(CN=N1)C21CCN(S(C)(=O)=O)CC1 [US20250313563, Compound 880776] |
| > 5000 nM | > 5000 nM | CC[C@]1(c2cccc(N3CCCCC3)c2)C2=CN=NC2NC2=C1C(=O)CC(C)(C)C2 (stereo partly specified) [US20250313563, Compound 810371] |
| < 100 nM | 100 to 1000 nM | CCC1(c2cccc(-c3ccncc3)c2)C2=CN=NC2NC2=C1C(=O)CC(C)(C)C2 (stereo unspecified) [US20250313563, Compound 791271] |
| < 100 nM | 100 to 1000 nM | CC[C@@]1(c2cccc(N(C)c3cccc(C(F)(F)F)n3)c2)C2=CN=NC2NC2=C1C(=O)CC(C)(C)C2 (stereo partly specified) [US20250313563, Compound 927338] |
| < 100 nM | < 100 nM | CCC1(c2cccc(C(C)C)c2)C2=C(CC(C)(C)NC2=O)NC2N=NC(C)=C21 (stereo unspecified) [US20250313563, Compound 949173] |
| < 100 nM | 100 to 1000 nM | CC1(C)CC(=O)C2=C(C1)NC1=C(CN=N1)C21COC2(CN(C(=O)C3CCCCCC3)C2)C1 (stereo unspecified) [US20250313563, Compound 947308] |
| < 100 nM and 100 to 1000 nM | < 100 nM and 100 to 1000 nM | CCC1(c2cccc(C(F)(F)F)c2)C2=C(NC3=NN=CC31)c1ccccc1C2=O (stereo unspecified) [US20250313563, Compound 948205] |
| < 100 nM | 100 to 1000 nM | CCC1(c2cccc(-c3cnn(C)c3)c2)C2=C(CC(C)(C)NC2=O)NC2N=NC(F)=C21 (stereo unspecified) [US20250313563, Compound 948300] |
| 100 to 1000 nM | 100 to 1000 nM | CC1(C)CC(=O)C2=C(C1)NC1=C(CN=N1)[C@]21CC[C@@H](C(F)(F)F)C1 [US20250313563, Compound 952437] |
| 100 to 1000 nM | 1000 to 5000 nM | CC(=O)N1CCC2(CC1)C1=C(N=NC1)NC1=C2C(=O)CC(C)(C)C1 [US20250313563, Compound 826649] |
| > 5000 nM | > 5000 nM | Cn1cncc1-c1cccc([C@@]2(C)C3=C(CC(C)(C)CC3=O)NC3=C2C(CC(C)(C)C)N=N3)c1 (stereo partly specified) [US20250313563, Compound 126015] |
| < 100 nM | 100 to 1000 nM | CCC1(c2cccc(N3CCCCC3)c2)C2=C(CC(C)(C)NC2=O)NC2N=NC(C)=C21 (stereo unspecified) [US20250313563, Compound 947674] |
| 100 to 1000 nM | 1000 to 5000 nM | CC1(C)CC(=O)C2=C(C1)NC1=C(CN=N1)C21CCN(c2ccncn2)CC1 [US20250313563, Compound 874529] |
| < 100 nM | < 100 nM | CC1(C)CC(=O)C2=C(C1)NC1=C(CN=N1)C21COC2(CN(C(=O)C3CC3)C2)C1 (stereo unspecified) [US20250313563, Compound 947297] |
| 100 to 1000 nM | 100 to 1000 nM | C[C@H]1C[C@@]2(CCO1)C1=C(N=NC1)NC1=C2C(=O)CC(C)(C)C1 [US20250313563, Compound 924307] |
| > 5000 nM | > 5000 nM | CC[C@@]1(c2ccc(C)cc2)C2=CN=NC2NC2=C1C(=O)CC(C)(C)C2 (stereo partly specified) [US20250313563, Compound 789458] |
| < 100 nM | < 100 nM | CC1(C)CC(=O)C2=C(C1)NC1=C(CN=N1)C21COC2(CN(C(=O)CC3CC(F)(F)C3)C2)C1 (stereo unspecified) [US20250313563, Compound 947278] |

| IC50 [1] | IC50 [2] | SMILES |
| --- | --- | --- |
| < 100 nM | 100 to 1000 nM | CC[C@]1(c2cccc(N3CCc4ccncc43)c2)C2=CN=NC2NC2=C1C(=O)CC(C)(C)C2 (stereo partly specified) [US20250313563, Compound 912003] |
| < 100 nM | < 100 nM and 100 to 1000 nM | CCC1(c2cccc(-c3ccnn3C)c2)C2=C(CC(C)(C)CC2=O)NC2N=NC(C(F)(F)F)=C21 (stereo unspecified) [US20250313563, Compound 945531] |
| < 100 nM | 100 to 1000 nM | CCC1(c2cccc(-c3ccnc(C)c3)c2)C2=CN=NC2NC2=C1C(=O)N(C)C(C)(C)C2 (stereo unspecified) [US20250313563, Compound 948302] |
| < 100 nM | 100 to 1000 nM | CC[C@]1(c2cccc(N(C)c3ccncc3)c2)C2=CN=NC2NC2=C1C(=O)CC(C)(C)C2 (stereo partly specified) [US20250313563, Compound 874260] |
| < 100 nM | < 100 nM | CCC1(c2cccc(-c3cncn3C)c2)C2=C(CC(C)(C)NC2=O)NC2N=NC(C)=C21 (stereo unspecified) [US20250313563, Compound 947565] |
| < 100 nM and 100 to 1000 nM | < 100 nM and 1000 to 5000 nM | CC1(C)CC(=O)C2=C(NC3=C(CN=N3)C23CCN(S(=O)(=O)c2cccc(C(F)(F)F)c2)CC3)[C@H]1F [US20250313563, Compound 951713] |
| < 100 nM | < 100 nM | CCC1(c2cccc(-c3cn(C)nc3C)c2)C2=C(CC(C)(C)CC2=O)NC2N=NC(C)=C21 (stereo unspecified) [US20250313563, Compound 884003] |
| < 100 nM | < 100 nM | CC1(C)CC(=O)C2=C(C1)NC1N=NC(C(F)(F)F)=C1[C@]21CCc2c(F)cccc21 (stereo partly specified) [US20250313563, Compound 806569] |
| 100 to 1000 nM | 1000 to 5000 nM | CC[C@]1(c2cccc(-c3c(C)nn(C)c3C)c2)C2=C(CC(C)(C)NC2=O)NC2N=NC(C(F)(F)F)=C21 (stereo partly specified) [US20250313563, Compound 948417] |
| < 100 nM | < 100 nM | CCC1(c2cccc(S(C)(=O)=O)c2)C2=C(CC(C)(C)NC2=O)NC2N=NC(C(F)(F)F)=C21 (stereo unspecified) [US20250313563, Compound 947799] |
| 100 to 1000 nM | 100 to 1000 nM | CC[C@@]1(c2cccc(-c3cnn(-c4ccccc4)c3C(F)(F)F)c2)C2=CN=NC2NC2=C1C(=O)NC(C)(C)C2 (stereo partly specified) [US20250313563, Compound 951837] |
| < 100 nM | 100 to 1000 nM | CC[C@]1(c2cccc(C(F)(F)F)c2)C2=CN=NC2NC2=C1C(=O)NC[C@H]2C (stereo partly specified) [US20250313563, Compound 945383] |
| > 5000 nM | > 5000 nM | C[C@@H]1COCC[C@@]12C1=CN=NC1NC1=C2C(=O)CC(C)(C)C1 (stereo partly specified) [US20250313563, Compound 924310] |
| 100 to 1000 nM | 100 to 1000 nM | CC1(C)CC(=O)C2=C(C1)NC1=C(CN=N1)C21CCS(=O)(=O)CC1 [US20250313563, Compound 896013] |
| < 100 nM and 1000 to 5000 nM | 100 to 1000 nM and > 5000 nM | CC1(C)CC(=O)C2=C(NC3=C(CN=N3)[C@]23CC[C@@H](C(F)(F)F)CC3)[C@H]1F [US20250313563, Compound 918285] |
| < 100 nM and 100 to 1000 nM | < 100 nM and 100 to 1000 nM | CC1(C)CC(=O)C2=C(C1)NC1=C(CN=N1)C21CCN(S(=O)(=O)c2cc(F)ccc2F)CC1 [US20250313563, Compound 948121] |
| 100 to 1000 nM | 100 to 1000 nM | CC1(C)CC(=O)C2=C(C1)NC1=C(CN=N1)[C@]21C[C@H](OCc2ccccc2)C1 [US20250313563, Compound 909210] |
| < 100 nM | < 100 nM | CCC1(c2cccc(S(=O)(=O)C3CC(F)(F)C3)c2)C2=CN=NC2NC2=C1C(=O)CC(C)(C)C2 (stereo unspecified) [US20250313563, Compound 944019] |
| < 100 nM | < 100 nM | CCC1(c2cccc(-c3cc(C)ncc3F)c2)C2=CN=NC2NC2=C1C(=O)CC(C)(C)C2 (stereo unspecified) [US20250313563, Compound 917132] |
| 1000 to 5000 nM | 100 to 1000 nM | CC(C)(C)CC1N=NC2=C1C1(CN(S(=O)(=O)CC3CC3)C1)C1=C(CC3(CCC3)CC1=O)N2 (stereo unspecified) [US20250313563, Compound 107829] |
| 100 to 1000 nM | 1000 to 5000 nM | CCC1(c2ccccc2)C2=C(N=NC2)NC2=C1C(=O)C(C)(C)CC2 (stereo unspecified) [US20250313563, Compound 835310] |
| < 100 nM and 100 to 1000 nM | 100 to 1000 nM and > 5000 nM | CC[C@@]1(c2cccc(-c3cnn4c3CCCC4)c2)C2=CN=NC2NC2=C1C(=O)NC(C)(C)C2 (stereo partly specified) [US20250313563, Compound 947410] |
| < 100 nM | 100 to 1000 nM | CCC1(c2cccc(C(F)(F)F)c2)C2=CN=NC2NC2=C1C(=O)N(c1cccnc1)CC2 (stereo unspecified) [US20250313563, Compound 945637] |
| 1000 to 5000 nM | > 5000 nM | CC[C@@]1(c2ccccc2)C2=CN=NC2NC2=C1C(=O)C[C@]1(CCNC1=O)C2 (stereo partly specified) [US20250313563, Compound 950160] |
| 100 to 1000 nM | 100 to 1000 nM | CC[C@@]1(c2cccc(-c3cc(C)ncc3C)c2)C2=C(CC(C)(C)NC2=O)NC2N=NC(C(F)(F)F)=C21 (stereo partly specified) [US20250313563, Compound 947364] |
| 100 to 1000 nM | 100 to 1000 nM | CC[C@@]1(c2ccccc2)C2=C(N=NC2)NC2=C1C(=O)[C@@H]1CC[C@H]2C1 [US20250313563, Compound 791269] |

Reference: BindingDB's records for patent US20250313563 (The Broad Institute, 2025)
